Data published in publication PMC9332802, “Structure–Activity Relationship of New Chimeric Analogs of Mastoparan from the Wasp Venom Paravespula lewisii” (International Journal of Molecular Sciences, 2022).
≈ marks a conversion by molar mass, not a printed value. Where “and” joins values, the source holds several entries; their conditions need not be identical. Equal values may be shown once. Ends that are not written are not given here.

Legend:
[1] = tested on: Escherichia coli NCTC 8196; test: microbe, parasite or virus in culture; type: cell-based; conditions: broth microdilution (CLSI), Mueller–Hinton broth, 37 °C, peptide 0.125 to […], no visible growth, triplicate
Protocol: (§1) Antimicrobial activity of peptides was examined against three reference strains: Staphylococcus aureus NCTC 4163, Escherichia coli NCTC 8196 and Pseudomonas aeruginosae NCTC 6749 dedicated for the determination of antibacterial activity. The bacterial strains were stored in glycerol stock (Sigma-Aldrich, St. Louis, MO, USA) at −80 °C. Before testing, the strains were cultured aerobically in Tryptic Soy Agar (BD DIFCO, Franklin Lakes, NJ, USA) at 37 °C for 20 h. The susceptibility of microorganisms to the peptides was determined by the broth microdilution assay according to the procedures outlined by CLSI [49]. […] In order to prepare the bacterial suspension, an overnight culture of bacteria in Tryptic Soy Broth (BD DIFCO, Franklin Lakes, NJ, USA) was diluted in sterile saline to a final concentration of approximately 10^7 CFU/mL of bacteria. Aliquots (5 µL) of bacterial suspension were added to each peptide solution. The sterility control (containing the tested peptide in broth) and the growth control (containing the reference strain in broth without the tested peptide) were also set up. The plates were incubated at 37 °C under aerobic conditions. The results are expressed as the minimal inhibitory concentration (MIC) of the compounds in question. The MIC was defined as the lowest concentration at which no visible growth of bacteria (no turbidity) was observed. The assay was performed in triplicate.

[2] = tested on: Pseudomonas aeruginosae NCTC 6749; test: microbe, parasite or virus in culture; type: cell-based; conditions: broth microdilution (CLSI), Mueller–Hinton broth, 37 °C, peptide 0.125 to […], no visible growth, triplicate
Protocol: as §1

[3] = tested on: Staphylococcus aureus NCTC 4163; test: microbe, parasite or virus in culture; type: cell-based; conditions: broth microdilution (CLSI), Mueller–Hinton broth, 37 °C, peptide 0.125 to […], no visible growth, triplicate
Protocol: as §1

[4] = Circular dichroism spectroscopy, relative α-helix fraction; type: physicochemical; conditions: CD, peptide 0.15 mg/mL, 25 °C, three scans averaged; for Relative α-helix fraction (fH), 0.1 M Tris + 50 mM SDS: 0.1 M Tris buffer pH 7.01 + 50 mM SDS, from mean residue ellipticity at 222 nm; for Relative α-helix fraction (fH), 50% TFE / Relative α-helix fraction (fH), water: from mean residue ellipticity at 222 nm (Rohl and Baldwin)
Protocol: Circular dichroism spectroscopy was applied to evaluate the conformational changes of peptides induced by membrane-mimetic environments. The secondary structures of MP and some of its MP analogs (Table 4) were determined in water, 50% 2,2,2-trifluoroethanol (TFE) and 0.1 M Tris buffer with the addition of 50 mM SDS. The relative α-helix fraction (fH) values presented in Table 4, calculated from the values of mean residue ellipticity at 222 nm, reflect the ability of peptides to adopt helical structure in the tested environments.
Circular dichroism (CD) spectra of peptides were recorded on a Jasco J-815 spectropolarimeter (Jasco Int. Co., Ltd., Tokyo, Japan). The CD spectra were acquired for peptides in a concentration of 0.15 mg/mL in water, 50% 2,2,2-trifluoroethanol (TFE) or 0.1 M tris(hydroxymethyl)aminomethane (Tris) buffer (pH 7.01) with the addition of 50 mM SDS (sodium dodecylsulphate) in 0.1 cm path length cuvettes. Measurements were taken at 25 °C in a spectral range of 193–260 nm with a bandwidth of 1 nm and response of 1 s. The spectra were averaged after three scans. Ellipticity was measured in mdeg units and converted to mean residue ellipticity (Θ). The relative helix content (fH) was calculated from the mean residue ellipticity values at 222 nm using the method proposed by Rohl and Baldwin [50] and described previously. Helical wheel projections (Figure 3) were made with HeliQuest https://heliquest.ipmc.cnrs.fr/ (accessed on 1 June 2022).

[5] = tested on: HCT116 cells; test: MTT cytotoxicity assay; type: cell-based, human; conditions: for Effect on cell viability up to 10 µM: 24 h, peptide up to 10 µM; for LD50 (peptide concentration sufficient to kill 50% of the peptide-treated cells): 24 h incubation, 0.05–50 µM, from regression curves of cell viability, triplicate
Protocol: (§2) The cytotoxicity of the selected MP analogs, MP-RIP and RIP-MP, was determined against two human cell lines. The viability of HT29 and HCT116 cells incubated with various concentrations of MP-RIP and RIP-MP was assessed by the MTT assay (Figure 4). […] Moreover, based on the regression curves of cell viability, lethal doses of MP analogs sufficient to kill 50% of the peptide-treated cells (LD50) were calculated. […] The viability of the HT29 cells indicates relatively low cytotoxicity of both analogs at a concentration corresponding to the MIC value against S. aureus. In the case of HCT116 cells, the above relationships were less evident.
(§3) Human cell lines HT29 (ATCC cat. # HTB-38) and HCT116 (ATCC cat. # CCL-247) were cultured in McCoy (HT29) or Dulbecco’s Modified Eagle’s (DMEM) medium (HCT116), supplemented with 10% fetal bovine serum (FBS), penicillin (100 U/mL) and streptomycin (100 µg/mL). Cultures were conducted at 37 °C in humidified atmosphere of 5% CO2. Cells were cultured for 24 h before initiation of the experiments. The cell viability was determined by the 3-(4, 5-dimethylthazol-2-yl)-2, 5-diphenyl tetrazolium bromide (MTT) assay. Briefly, HT29 or HCT116 cells were seeded in 96-well plates to a density of 10^5 cells/well in 0.2 mL of above-specified culture media. After 24 h, the following concentrations of peptides were added to wells: 0.05, 0.1, 0.5, 1, 5, 10, 25, 50 µM. As a negative control, cells were treated with 0.9% NaCl. After 24 h of incubation (5% CO2, 37 °C), 15 µL MTT solution was added into each well to reach the final concentration of […]. After further incubation for 2 h (5% CO2, 37 °C) the cells were centrifuged for 3 min at 4 °C and the medium was removed. Formazan crystals present in mitochondria of metabolically active cells were dissolved with 100 μL of dimethylsulfoxide (DMSO), and the dye concentration was determined at 570 nm wavelength. Cell viability was expressed as a percentage (mean value ± SEM) of those cells treated with 0.9% NaCl as negative control. Lethal doses, which correspond to peptide concentrations sufficient to kill 50% of the peptide-treated cells (LD50), were determined with GraphPad Prism 7.0 software (GraphPad Software Inc., La Jolla, CA, USA). The assay was performed in triplicate.

[6] = tested on: HT29 cells; test: MTT cytotoxicity assay; type: cell-based, human; conditions: for Effect on cell viability up to 10 µM: 24 h, peptide up to 10 µM; for LD50 (peptide concentration sufficient to kill 50% of the peptide-treated cells): 24 h incubation, 0.05–50 µM, from regression curves of cell viability, triplicate
Protocol: as §2, §3

[7] = cited from earlier work
Excerpt: However, comparing their cytotoxic properties with other MP analogs known from the previous literature reports appears to be difficult due to the different cell lines used in cytotoxicity assays.

| Compound | MIC E. coli [1] [µg/mL] | MIC P. aeruginosae [2] [µg/mL] | MIC S. aureus [3] [µg/mL] | Relative α-helix fraction (fH), 0.1 M Tris + 50 mM SDS [4] | Relative α-helix fraction (fH), 50% TFE [4] | Relative α-helix fraction (fH), water [4] | Effect on cell viability up to 10 µM [5] | LD50 (peptide concentration sufficient to kill 50% of the peptide-treated cells) [5] [µM] | Effect on cell viability up to 10 µM [6] | LD50 (peptide concentration sufficient to kill 50% of the peptide-treated cells) [6] [µM] | Fold lower cytotoxicity than MP [7] [fold] |
| --- | --- | --- | --- | --- | --- | --- | --- | --- | --- | --- | --- |
| CC[C@H](C)[C@H](NC(=O)[C@H](CCCCN)NC(=O)CNC(=O)[C@H](CC(C)C)NC(=O)[C@H](CC(C)C)NC(=O)[C@H](Cc1ccc(O)cc1)NC(=O)CNC(=O)[C@H](C)N)C(=O)N[C@@H](CC(N)=O)C(=O)N[C@@H](CC(C)C)C(=O)N[C@@H](CCCCN)C(=O)N[C@@H](C)C(=O)N[C@@H](CC(C)C)C(=O)N[C@@H](C)C(=O)N[C@@H](C)C(=O)N[C@@H](CC(C)C)C(=O)N[C@@H](C)C(=O)N[C@@H](CCCCN)C(=O)N[C@@H](CCCCN)C(=O)N[C@H](C(=O)N[C@@H](CC(C)C)C(=O)N[C@@H](Cc1ccc(O)cc1)C(=O)N[C@@H](CO)C(=O)N1CCC[C@H]1C(=O)N[C@@H](Cc1c[nH]c2ccccc12)C(=O)N[C@H](C(=O)N[C@@H](CC(N)=O)C(=O)N[C@@H](Cc1ccccc1)C(N)=O)[C@@H](C)O)[C@@H](C)CC [TP10-RIP] | >256 | >256 | 128 (≈ 41.6 µM) | 0.25 | 0.27 | 0.08 | – | – | – | – | – |
| CC[C@H](C)[C@H](NC(=O)[C@H](CCCCN)NC(=O)CNC(=O)[C@H](CC(C)C)NC(=O)[C@H](CC(C)C)NC(=O)[C@H](Cc1ccc(O)cc1)NC(=O)CNC(=O)[C@H](C)N)C(=O)N[C@@H](CC(N)=O)C(=O)N[C@@H](CC(C)C)C(=O)N[C@@H](CCCCN)C(=O)N[C@@H](C)C(=O)N[C@@H](CC(C)C)C(=O)N[C@@H](C)C(=O)N[C@@H](C)C(=O)N[C@@H](CC(C)C)C(=O)N[C@@H](C)C(=O)N[C@@H](CCCCN)C(=O)N[C@@H](CCCCN)C(=O)N[C@H](C(=O)N[C@@H](CC(C)C)C(=O)N[C@@H](Cc1ccc(O)cc1)C(=O)N[C@@H](CCCCN)C(=O)N1CCC[C@H]1C(=O)N[C@H](C(=O)N[C@H](C(=O)N[C@@H](CC(N)=O)C(=O)N[C@@H](Cc1ccccc1)C(N)=O)[C@@H](C)O)[C@@H](C)CC)[C@@H](C)CC [TP10-[Lys^2, Ile^4] RIP] | >256 | >256 | 128 (≈ 42 µM) | 0.31 | 0.29 | 0.08 | – | – | – | – | – |
| CC[C@H](C)[C@H](NC(=O)[C@H](CCCCN)NC(=O)[C@H](CCCCN)NC(=O)[C@H](C)NC(=O)[C@H](CC(C)C)NC(=O)[C@H](C)NC(=O)[C@H](C)NC(=O)[C@H](CC(C)C)NC(=O)[C@H](C)NC(=O)[C@H](CCCCN)NC(=O)[C@H](CC(C)C)NC(=O)[C@H](CC(N)=O)NC(=O)[C@@H](NC(=O)[C@H](CCCCNC(=O)Cn1c(-c2ccccn2)nc2ccccc21)NC(=O)CNC(=O)[C@H](CC(C)C)NC(=O)[C@H](CC(C)C)NC(=O)[C@H](Cc1ccc(O)cc1)NC(=O)CNC(=O)[C@H](C)N)[C@@H](C)CC)C(=O)N[C@@H](CC(C)C)C(N)=O [[Lys^7 (PBnzAc)] TP10] | >256 | >256 | >256 | 0.32 | 0.51 | 0.14–0.19 and 0.15 | – | – | – | – | – |
| INLKALAALAKKILLIKKALAALAKLNI-NH2 [MP-retroMP] | >256 | >256 | >256 | 0.17 | 0.23–0.24 and 0.24 | 0.04 | – | – | – | – | – |
| INLKALAALAKKILYSPWTNF-NH2 [MP-RIP] | – | >256 | – | – | – | – | did not substantially affect the viability | 13.2 | did not substantially affect the viability | 38.0 | – |
| LIKKALAALAKLNI-NH2 [retroMP, reference compound] | 256 | 256 | >256 | 0.16 | – | 0.19 | – | – | – | – | 3.5 |
| YSPWTNFINLKALAALAKKIL-NH2 [RIP-MP] | – | >256 | – | – | – | – | did not substantially affect the viability | 17.0 | did not substantially affect the viability | 30.2 | – |
